The results in this text go back to paper PMC8698456, “Agrobacterium fabrum atu0526-Encoding Protein Is the Only Chemoreceptor That Regulates Chemoattraction toward the Broad Antibacterial Agent Formic Acid” (Biology, 2021).

Assay [1] concerns the target T1, Atu0526 (Agrobacterium fabrum, UniProt Q7D199, R115A).
T1 construct: gene mclA; periplasmic domain (Atu0526 LBD R115A; LBD from 36th residue to 197th residue)
As to the kind of experiment: isothermal titration calorimetry (no significant Tm shift in thermo shift assay). In kind it is binding. A general note: ITC needs no label: the signal is the heat of the interaction.

Assay [2] has as its target T2, Atu0526 (Agrobacterium fabrum, UniProt Q7D199).
T2 construct: gene mclA; periplasmic domain (LBD, from 36th residue to 197th residue), His-tagged, pET30a
As to the kind of experiment: isothermal titration calorimetry; thermo shift assay (Tm […] to […] °C). It is filed as binding.

T1 sequence (Q7D199 entry or part of it R115A): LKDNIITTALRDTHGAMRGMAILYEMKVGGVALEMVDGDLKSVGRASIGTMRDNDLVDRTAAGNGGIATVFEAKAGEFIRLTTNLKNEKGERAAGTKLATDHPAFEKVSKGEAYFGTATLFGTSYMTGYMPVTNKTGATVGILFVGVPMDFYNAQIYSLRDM
T2 sequence (Q7D199 entry or part of it): as the sequence (Q7D199 entry or part of it R115A) above

By Kd is commonly meant the free concentration of one partner at which half of the binding sites on the other are occupied at equilibrium, for simple one-to-one binding. With `O=CO` [formic acid], the Kd at Atu0526 [1] is 22.9 ± 5.36 µM; at Atu0526 [2], 172 ± 53.6 µM.
